Results published in publication PMC6120233, “Importance of Val567 on heme environment and substrate recognition of neuronal nitric oxide synthase” (FEBS Open Bio, 2018).

Assays:
[1] = target: T1, WT nNOSoxy (oxygenase domain of rat neuronal nitric oxide synthase) (Rattus norvegicus, UniProt P29476, V567T); assay: biochemical; set-up: UV-visible perturbation difference spectroscopy; displacement of heme-bound imidazole (0.5 mM), apparent dissociation constant; details: read-out: Val567Thr
T1 construct: gene Nos1; oxygenase domain, aa 1-720 plus 6-histidine tag, plasmid pCWnNOSoxy, E. coli BL21(DE3), HisTrap purification
T1 sequence (P29476 1-720 V567T): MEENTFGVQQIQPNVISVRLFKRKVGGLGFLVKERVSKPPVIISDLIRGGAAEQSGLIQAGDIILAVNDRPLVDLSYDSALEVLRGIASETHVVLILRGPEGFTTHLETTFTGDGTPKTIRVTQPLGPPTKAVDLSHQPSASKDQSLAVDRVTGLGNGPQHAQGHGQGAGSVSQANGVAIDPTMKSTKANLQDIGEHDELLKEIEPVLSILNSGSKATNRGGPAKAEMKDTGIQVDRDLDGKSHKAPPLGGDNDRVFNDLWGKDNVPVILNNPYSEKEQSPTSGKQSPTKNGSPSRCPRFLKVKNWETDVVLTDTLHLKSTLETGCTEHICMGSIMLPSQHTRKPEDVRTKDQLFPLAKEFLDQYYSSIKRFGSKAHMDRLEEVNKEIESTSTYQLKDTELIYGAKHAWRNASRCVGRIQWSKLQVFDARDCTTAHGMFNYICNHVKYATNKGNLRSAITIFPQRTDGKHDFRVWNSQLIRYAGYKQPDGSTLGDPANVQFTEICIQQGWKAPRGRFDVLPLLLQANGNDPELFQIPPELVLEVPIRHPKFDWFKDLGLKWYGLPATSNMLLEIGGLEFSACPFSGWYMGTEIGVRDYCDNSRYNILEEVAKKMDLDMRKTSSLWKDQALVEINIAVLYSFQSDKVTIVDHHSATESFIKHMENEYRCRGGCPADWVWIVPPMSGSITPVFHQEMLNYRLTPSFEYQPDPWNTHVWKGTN
Description: (§1) The native enzymes (~1–2 μM) were incubated 5 min at 4 °C in 50 mM HEPES buffer pH 7.4 in the presence of 0.5 mM ImH and then equally divided into reference and sample cuvettes. After 2 min at room temperature, increasing concentrations of the studied compounds were added to the sample cuvette and equivalent amounts of buffer were added to the reference cuvette. Apparent dissociation constants (K s,app) were estimated by plotting the difference in absorbance between peak (~395 nm) and valley (~430 nm) as a function of added substrate or substrate analogue concentrations and fitting the data to a hyperbolic one‐site binding model by Origin (OriginLab Corp., Northampton, MA, USA). […] Effective K s values can be deduced from the K s,app and the K s values for ImH, assuming simple competitive binding equilibrium 37.

[2] = target: T2, WT nNOSoxy (oxygenase domain of rat neuronal nitric oxide synthase) (Rattus norvegicus, UniProt P29476, V567S); assay: biochemical; set-up: UV-visible perturbation difference spectroscopy; displacement of heme-bound imidazole (0.5 mM), apparent dissociation constant; details: read-out: Val567Ser
T2 construct: gene Nos1; oxygenase domain, aa 1-720 plus 6-histidine tag, plasmid pCWnNOSoxy, E. coli BL21(DE3), HisTrap purification
T2 sequence (P29476 1-720 V567S): as the sequence (P29476 1-720 V567T) above, with T567S counted along it
Description: as §1

[3] = target: T3, WT nNOSoxy (oxygenase domain of rat neuronal nitric oxide synthase) (Rattus norvegicus, UniProt P29476, V567Y); assay: biochemical; set-up: UV-visible perturbation difference spectroscopy; displacement of heme-bound imidazole (0.5 mM), apparent dissociation constant; details: read-out: Val567Tyr
T3 construct: gene Nos1; oxygenase domain, aa 1-720 plus 6-histidine tag, plasmid pCWnNOSoxy, E. coli BL21(DE3), HisTrap purification
T3 sequence (P29476 1-720 V567Y): as the sequence (P29476 1-720 V567T) above, with T567Y counted along it
Description: as §1

[4] = target: T4, WT nNOSoxy (oxygenase domain of rat neuronal nitric oxide synthase) (Rattus norvegicus, UniProt P29476, V567R); assay: biochemical; set-up: UV-visible perturbation difference spectroscopy; displacement of heme-bound imidazole (0.5 mM), apparent dissociation constant; details: read-out: Val567Arg
T4 construct: gene Nos1; oxygenase domain, aa 1-720 plus 6-histidine tag, plasmid pCWnNOSoxy, E. coli BL21(DE3), HisTrap purification
T4 sequence (P29476 1-720 V567R): as the sequence (P29476 1-720 V567T) above, with T567R counted along it
Description: as §1

[5] = target: T5, WT nNOSoxy (oxygenase domain of rat neuronal nitric oxide synthase) (Rattus norvegicus, UniProt P29476, V567F); assay: biochemical; set-up: UV-visible perturbation difference spectroscopy; displacement of heme-bound imidazole (0.5 mM), apparent dissociation constant; details: read-out: Val567Phe
T5 construct: gene Nos1; oxygenase domain, aa 1-720 plus 6-histidine tag, plasmid pCWnNOSoxy, E. coli BL21(DE3), HisTrap purification
T5 sequence (P29476 1-720 V567F): as the sequence (P29476 1-720 V567T) above, with T567F counted along it
Description: as §1

[6] = target: T4, WT nNOSoxy (oxygenase domain of rat neuronal nitric oxide synthase); assay: UV-visible difference spectroscopy, heme-Fe(III)-imidazole complex formation; assay type: binding; details: read-out: Val567Arg
Text: (§2) UV-visible difference spectroscopy, heme-Fe(III)-imidazole complex formation on WT nNOSoxy (oxygenase domain of rat neuronal nitric oxide synthase)

[7] = target: T2, WT nNOSoxy (oxygenase domain of rat neuronal nitric oxide synthase); assay: as above; assay type: binding; details: read-out: Val567Ser
Text: as §2

[8] = target: T6, WT nNOSoxy (oxygenase domain of rat neuronal nitric oxide synthase) (Rattus norvegicus, UniProt P29476); assay: as above; assay type: binding
T6 construct: gene Nos1; oxygenase domain, aa 1-720 plus 6-histidine tag, plasmid pCWnNOSoxy, E. coli BL21(DE3), HisTrap purification
T6 sequence (P29476 1-720): as the sequence (P29476 1-720 V567T) above, with T567V counted along it
Text: as §2

[9] = target: T3, WT nNOSoxy (oxygenase domain of rat neuronal nitric oxide synthase); assay: as above; assay type: binding; details: read-out: Val567Tyr
Text: as §2

[10] = target: T5, WT nNOSoxy (oxygenase domain of rat neuronal nitric oxide synthase); assay: as above; assay type: binding; details: read-out: Val567Phe
Text: as §2

[11] = target: T1, WT nNOSoxy (oxygenase domain of rat neuronal nitric oxide synthase); assay: as above; assay type: binding; details: read-out: Val567Thr

| Compound | Kd [1] [µM] | Kd [2] [µM] | Kd [3] [µM] | also measured |
| --- | --- | --- | --- | --- |
| CCCNC(=N)N [compound 5, n-Propyl-guanidine] | 267 ± 63 | 122 ± 8 | 295 ± 16 | – |
| CCCCNC(=N)N [compound 6, n-Butyl-guanidine] | 23 ± 5.6 | 322 ± 31 | – | – |
| N=C(N)NC1CC1 [compound 8, Cyclopropyl-guanidine] | 20.2 ± 3.9 | 21.6 ± 3.9 | 24.3 ± 1.4 | Kd [4]: 237 ± 85 µM |
| c1c[nH]cn1 [imidazole] | – | – | – | Kd [6]: 262 ± 77 µM; Kd [7]: 140 ± 16 µM; Kd [8]: 76.3 ± 5.4 µM; Kd [9]: 11.1 ± 3 µM; Kd [10]: 152 ± 26 µM; Kd [11]: 93 ± 24.7 µM |

More lines, main results first:

| Kd [1] [µM] | Kd [2] [µM] | Kd [3] [µM] | Compound | also measured |
| --- | --- | --- | --- | --- |
| 99 ± 19 | 34.2 ± 4.2 | 147 ± 43 | CC(C)NC(=N)N [compound 9, Isopropyl-guanidine] | Kd [4]: > 500 µM; Kd [5]: 293 ± 34 µM |
| – | 2.2 ± 0.4 | – | N=C(N)Nc1ccc(F)cc1 [compound 11, 4-fluorophenyl-guanidine] | Kd [5]: 165 ± 87 µM |
| 189 ± 63 | 7.8 ± 1.2 | – | COc1ccc(NC(=N)N)cc1 [compound 12, 4-methoxyphenyl-guanidine] | – |
